Data published in paper PMC6269819, “Evaluation of the Biological Activity of Naturally Occurring 5,8-Dihydroxycoumarin” (Molecules, 2013).
Several values for one entry are separate records, joined by “and”; a condition that tells them apart may be missing. Equal values may be shown once. Marks after values point to notes of the source that are not given here.

Key:
[1] = DPPH• radical scavenging assay; conditions: 16 min reaction
Protocol: Radical scavenging activity of extracts against stable DPPH^• (2,2-diphenyl-[…] hydrate, Sigma-Aldrich Chemie, Steinheim, Germany) was determined spectrophotometrically by using slightly modified method of Brand-Williams et al. (1995). 5,8-DHC was dissolved in methanol at 0.0025, 0.005, 0.010 and 0.025% concentrations before reaction. A 2 mL aliquot of DPPH^• solution in methanol (6 × 10^−5 M) was mixed with a 50 μL of 5,8-DHC solution in 1 cm path length quartz cuvette. The decreasing absorbance at 515 nm was recorded on a UV spectrophotometer Spectronic Genesys 8 (Spectronic Instruments, Rochester, NY, USA) during 16 min reaction time at 1 min intervals until the absorbance curve reached the plateau. The same amount of methanol and DPPH^• solution was used as a blank. The experiments were carried out in triplicate.

[2] = test system: Wistar rat bone marrow cells; test: Micronucleus in vivo assay in rat bone marrow
Text: Male albino Wistar rats aged 8–10 weeks and having body weight of 200–220 g, were used in the present study. The animals were supplied by the Animal Facility of the Department of Immunology, State Research Institute Center for Innovative Medicine. Ethical approval was given by the Committee of the Lithuanian Animal Care and Use. Prior to the start of the study, the animals were acclimatized for 7 days. They were housed under conditions of constant temperature, humidity and a light/dark cycle of 12 h/12 h with free access to standard commercial pellet diet and drinking water. The animals were randomly distributed into 11 experimental groups of six rats each.
We used a mixture of dimethylsulfoxide (DMSO) and sunflower oil (1:2) as the vehicle for 5,8-DHC (5,8-DHC was dissolved in DMSO and adjusted to the desired dose with sunflower oil immediately before administration). For the acute treatment, the animals received single intraperitoneal (i.p.) injections of 10 or 20 mg/kg of 5,8-DHC in 1 mL volume per 100 g body weight (b.w.). The negative control group comprised animals, given a single i.p. injection of vehicle (1 mL/100 g b.w.) and the positive control group, given cyclophosphamide (CP, 30 mg/kg adjusted in 0.5 mL/100 g b.w. in sterile physiological saline). A commercial form of cyclophosphamide was used (‘Endoxan’, ASTA Medica AG, Frankfurt, Germany). Blank controls comprised untreated animals. For the repeated treatment, 5,8-DHC (10 or 20 mg/kg) or vehicle was administered via gavage (1 mL/100 g b.w.) once a day for 3 consecutive days. Animals were sacrificed 24 h or 48 h after the last dose administration. Colchicine was applied i.p. at a dose of 2 mg/kg b.w. in 1 mL volume 90 min before sacrifice. Both femurs were dissected from each animal and used to obtain bone marrow preparations for the analysis of chromosome aberrations and micronucleus.
The bone marrow MN assay was conducted according to the standard procedure. Ends of the femura were cut off and the bone marrow was washed out with 2 mL of heat-inactivated foetal calf serum (Biochrom AG, Berlin, Germany), mixed thoroughly to obtain a fine suspension and centrifuged for 5 min at 150 × g. The supernatant was discarded and the cell pellet was carefully re-suspended. At least two smears per animal were prepared and allowed to air dry prior to fixation with methanol. The slides were stained in May-Grünwald solution followed by Giemsa (both Merck), coded and scored blind by the same scorer under magnification of 1000× (Jenaval, Zeiss, Jena, Germany). Micronucleated polychromatic erythrocyte (MNPCE) frequencies were based on the observation of 2,000 immature polychromatic erythrocytes (PCEs). Bone marrow toxicity was monitored by a decrease of PCE to total erythrocytes (e.g., PCEs+NCEs, normochromatic erythrocytes). At least 1,000 bone marrow erythrocytes per animal were analysed.

[3] = Ferric reducing/antioxidant power (FRAP) assay
Protocol: The ability of antioxidants to reduce ferric ion to the ferrous ion, (FRAP assay) is another indicator frequently used for assessing antioxidant power. Ferrous ion (Fe^2+) produced in this assay forms a blue complex (Fe^2+/TPTZ) absorbing at 593 nm. Briefly, the reagent was prepared by mixing acetate buffer (300 mM, pH 3.6), a solution of 10 mM TPTZ in 40 mM HCl, and 20 mM FeCl3 × 6H2O at 10:1:1 (v/v/v). Firstly 300 μL of freshly prepared FRAP reagent was heated to 37 °C and an absorbance (A0) of a blank reagent was read at 593 nm in a Biotek EL808 microplate reader (Winooski, VT, USA). Then 10 μL of 0.01% 5,8-DHC solution in water and 30 μL H2O were added and the absorbance (A) was recorded every 1 min during the whole monitoring period which lasted up to 30 min. The change in the absorbance (ΔA593 nm) between the final reading and A0 was calculated for each sample and related to the ΔA593 nm of a Fe^2+ reference solution which was measured simultaneously. The value is expressed in Trolox equivalents required to obtain similar reducing power.

[4] = repeated gavage 3 × 10 mg/kg b.w., sacrifice 48 h
[5] = repeated gavage 3 × 20 mg/kg b.w., sacrifice 48 h
[6] = single i.p. 10 mg/kg b.w., sacrifice 24 h
[7] = single i.p. 10 mg/kg b.w., sacrifice 48 h

## O=c1ccc2c(O)ccc(O)c2o1 [5,8-DHC, 5,8-Dihydroxycoumarin]
[1]
  IC50 in DPPH• assay: 0.0185%
[2]; rat, in vivo
  cytotoxicity (decline of the proportion of PCEs to total erythrocytes): no signs of 5,8-DHC cytotoxicity
[2]; repeated gavage
  effect on the frequency of MNPCEs: no obvious effect
[2]; [4]
  MNPCE (%± S.E.M.): 0.24 ± 0.05%
  PCE (%± S.E.M.): 31.7 ± 4.0%
[2]; [5]
  MNPCE (%± S.E.M.): 0.23 ± 0.05%
  PCE (%± S.E.M.): 45.5 ± 3.5%
[2]; [6]
  MNPCE (%± S.E.M.): 0.56 ± 0.08 ^a %
  PCE (%± S.E.M.): 32.1 ± 1.9%
[2]; [7]
  MNPCE (%± S.E.M.): 0.30 ± 0.06%
  PCE (%± S.E.M.): 31.8 ± 5.6%
[2]; single i.p. 20 mg/kg b.w., sacrifice 24 h
  PCE (%± S.E.M.): 36.6 ± 2.8%
[2]; single i.p. 20 mg/kg b.w., sacrifice 24 h, 20 mg/kg
  MNPCE (%± S.E.M.): 0.63% and 0.63 ± 0.04 ^a %
[2]; single i.p. 20 mg/kg b.w., sacrifice 48 h
  PCE (%± S.E.M.): 26.6 ± 5.0%
[2]; single i.p. 20 mg/kg b.w., sacrifice 48 h, 20 mg/kg
  MNPCE (%± S.E.M.): 0.59% and 0.59 ± 0.14^a %
[3]
  FRAP value: 577 ± 0.0 mg/g in Trolox equivalents
